This note sets out measurements from article PMC3130785, “Small Compound 6-O-Angeloylplenolin Induces Mitotic Arrest and Exhibits Therapeutic Potentials in Multiple Myeloma” (PLoS ONE, 2011).

The test system of data set [1] is normal PBMCs from 5 healthy volunteers. Nature of the data set: MTT assay on normal PBMCs. The class given is cell-based, human. The following applies: 48 h. An excerpt:
CD138+ cells from 7 MM patients were isolated with informed consent from BM mononuclear cells by using positive immunomagnetic column separation (Miltenyi Biotech, Auburn, CA). The purity of CD138+ cells is above 97% as determined by flow cytometry. BMSCs were generated from a MM patient-derived CD138-negative BM mononuclear cells cultured for 5 weeks. Peripheral blood mononuclear cells (PBMCs) from 5 healthy donors were separated by Ficoll-Hipaque density sedimentation.
(§1) U266, RPMI 8226 cells (1×10^4), primary CD138+ cells, PBMCs (5×10^4), and BMSCs (1×10^4) were cultured in 96-well dishes and incubated without or with 6-OAP at indicated concentration for 48 h. MM.1S and MM.1R cells (2×10^4) were seeded into 96-well dishes and pre-cultured for 24 h, then treated with 6-OAP for 48 h. Cell proliferation was determined by MTT assay. Cell viability was estimated by trypan blue dye exclusion.

For a further data set, the system named is MM.1S cells. Nature of the data set: MTT assay with IL-6, IGF-I or BMSCs. The class given is cell-based, human. The conditions noted are these: 48 h. How it is done:
as §1
Figure 5 6-OAP overcomes the protective effects of IL-6, IGF-I and BMSCs on MM cells. (A and B) MM.1S cells were cultured for 48 h with indicated concentrations of 6-OAP at the presence or absence of IL-6 (A) or IGF-I (B). Cell proliferation was assessed by MTT assay. (C) MM.1S and/or BMSCs cells were cultured for 48 h with indicated concentrations of 6-OAP. Cell proliferation was assessed by MTT assay. *p<.01,** p<.05. (D) MM.1S cells were serum starved for 2 h, then co-cultured without or with 6-OAP at 5 µM for 12 h, followed by stimulation with IL-6 at 10 ng/ml for indicated time points (upper panel), or IL-6 at 10 ng/ml for 1 h, followed by treatment with 6-OAP at indicated concentration for 12 h (lower panel). Whole-cell extracts were prepared and examined by Western blotting using antibodies against pJak2, pStat3, Stat3 or β-actin. (E) MM.1S cells were serum starved for 2 h, then co-cultured without or with 6-OAP (5 µM) for 12 h, followed by stimulation with IGF-I at 50 ng/ml for indicated time points (upper panel), or stimulated with IGF-I at 50 ng/ml for 1 h, followed by treatment with 6-OAP at indicated concentration for 12 h (lower panel). Whole-cell extracts were prepared and examined by western blotting using antibodies against pPDK1, pAkt, Akt or β-actin. (F) MM.1S cells were serum starved for 2 h, then co-cultured without or with 6-OAP (5 µM) for 12 h, followed by stimulation with TNF-α at 5 ng/ml for indicated time points. Whole-cell extracts were prepared and examined by Western blotting using indicated antibodies.
A general note: Tetrazolium assays rely on reduction of a dye to a coloured formazan, in cell work by metabolically active cells.

Data set [2] can be described thus: Pharmacokinetic study (LC-MS/MS plasma concentration). The class given is in vivo, Sprague-Dawley rats. The conditions noted are these: rat; for MRT last: read-out: MRT0-t. How it is done: Eight Sprague–Dawley rats (220–250 g, female) were bought from the Laboratory Animal Center of Nanfang Medical University (Guangzhou, China), and maintained and monitored in a specific pathogen-free environment. They were fasted overnight before the experiments. All rat studies were conducted according to protocols approved by the Animal Ethics Committee of our institute. Four rats were administered with 6-OAP (30 mg/kg) by intravenous injection, and the other four rats were inoculated with 6-OAP (40 mg/kg) by intraperitoneal injection. Blood samples of 100–200 µL were collected from the orbit at the time points indicated. The plasma concentrations of 6-OAP were determined by LC-MS/MS. The pharmacokinetic parameters were obtained from the pharmacokinetic software DAS 2.0 (Drug and Statistics Version 2.0).

Setting [3] is: female, Sprague-Dawley, in vivo, ip (40 mg/kg).
[4] abbreviates: female, Sprague-Dawley, in vivo, iv (30 mg/kg).

Like-named read-outs stand apart in the source and are kept apart here.

In general, AUC(0-t) refers to exposure summed from dosing to a finite time, without extrapolation to infinity. A lower AUC(0-t) goes with low exposure. In general, Cmax refers to the peak of the concentration-time curve. The term half-life denotes how long it takes for the measured level to halve. One may read the bioavailability as dose-corrected exposure relative to a reference, in per cent. Turning to `CC=C(C)C(=O)OC1C2C(CC(C)C3C=CC(=O)C31C)OC(=O)C2C` (stereo not drawn) [6-OAP, 6-O-angeloylplenolin], the “growth of normal PBMCs” value in data set [1] was “did not drastically affect the growth”. Besides, in the data set on MM.1S cells (IGF-I 10 to 50 ng/ml, 6-OAP 5 to 7.5 µM), the IGF-I-caused cell proliferation result was “abolished IGF-I-caused cell proliferation”. Moreover, the IL-6-promoted proliferation entry with MM.1S cells (IL-6 2 to 10 ng/ml, 6-OAP 5 to 7.5 µM) is given as “drastically reversed this effect”. Moreover, the “BMSCs-facilitated MM.1S cell expansion” value in the data set with MM.1S cells (co-incubation with BMSCs, 6-OAP 5 or 7.5 µM) is recorded as “significantly inhibited this effect”. For the same molecule, the exposure AUC(0-t) in data set [2] (setting [3]) came out at 18000 ± 2700 ng·h/mL; in data set [2] (setting [4]), 14700 ± 1020 ng·h/mL. Moreover, the Cmax in data set [2] (setting [3]) amounted to 3870 ± 1120 ng/mL; in data set [2] (setting [4]), 16400 ± 1940 ng/mL. The results for the half-life in data set [2] (setting [3]) and in data set [2] (setting [4]) were 4.68 ± 0.463 h and 1.76 ± 0.453 h, respectively. Moreover, in data set [2] (female, Sprague-Dawley, in vivo, ip (40 mg/kg), read-out: BA (bioavailability)), the bioavailability worked out at 92.5%. Also, the MRT last in data set [2] (setting [3]) is 5.75 ± 1.03 h; in data set [2] (setting [4]), 1.44 ± 0.448 h. For the same molecule, in data set [2] (female, Sprague-Dawley, in vivo, iv (30 mg/kg), read-out: CLz (converted)), the clearance is 34.1 mL/min/kg. Besides, the Tmax in data set [2] (female, Sprague-Dawley, in vivo, ip, 40 mg/kg, ip 40 mg/kg, read-out: time of peak concentration (converted)) is 0.813 h; in data set [2] (female, Sprague-Dawley, in vivo, ip, 40 mg/kg, ip (40 mg/kg), read-out: Tmax), 0.813 ± 0.08 h; in data set [2] (female, Sprague-Dawley, in vivo, iv, 30 mg/kg, iv 30 mg/kg, read-out: time of peak concentration (converted)), 0.033 h; in data set [2] (female, Sprague-Dawley, in vivo, iv, 30 mg/kg, iv (30 mg/kg), read-out: Tmax), 0.033 h. The CLz in data set [2] (ip 40 mg/kg) worked out at 37.33 ± 5.58 mL/min/kg. Further, the results for the peak plasma concentration in data set [2] (ip 40 mg/kg) and in data set [2] (iv 30 mg/kg) were 11.191 ± 3.225 µM and 47.506 ± 5.595 µM, respectively.
